Source: ChEMBL document CHEMBL5625206, “Design, synthesis, and evaluation of novel pleuromutilin aryl acrylate derivatives as promising broad-spectrum antibiotics especially for combatting multi-drug resistant gram-negative bacteria” (Eur J Med Chem, 2023)
Values after ≈ are worked out from the molar mass of the structure shown. Active and inactive are the calls of the source. The rule behind the calls is not given here.

What was measured:
[1] = Toxicity in fasted female Sprague-Dawley rat assessed as animal growth rate at 148 mg/kg, IG measured for 14 days (reference value: 29.85 +/- 4.97 g); format: organism-based; settings: in vivo, po, 336 h, time 14 day
Escherichia coli [2] = assay: Disruption of cell membrane integrity in Escherichia coli ATCC 25922 assessed as increase in red fluorescence at 1 to 4 times MIC incubated for 2 hrs by MycoLight green JJ98/PI staining based analysis; format: functional, organism-based
[3] = Tmax in fasted Sprague-Dawley rat at 1 mg/kg, iv by LC-MS/MS analysis; format: ADME, organism-based; settings: in vivo
[4] = Toxicity in fasted female Sprague-Dawley rat assessed as relative ovary weight ratio at 148 mg/kg, IG measured for 14 days (reference value: 0.061 +/- 0.010); format: organism-based; settings: in vivo, po, 336 h, time 14 day
[5] = Toxicity in fasted male Sprague-Dawley rat assessed as relative spleen weight ratio at 500 mg/kg, IG measured for 14 days (reference value: 0.246 +/- 0.037); format: organism-based; settings: in vivo, po, 336 h, time 14 day
Staphylococcus aureus [6] = assay: Bactericidal activity against methicillin-resistant Staphylococcus aureus ATCC 33591 incubated for 24 hrs by time kill assay; format: functional, organism-based
Staphylococcus aureus [7] = assay: Disruption of cell membrane integrity in methicillin-resistant Staphylococcus aureus ATCC 33591 assessed as increase in red fluorescence at 1 to 4 times MIC incubated for 2 hrs by MycoLight green JJ98/PI staining based analysis; format: functional, organism-based
[8] = Toxicity in fasted male Sprague-Dawley rat assessed as body weight at 100 mg/kg, IG measured after 7 days (reference value: 260.5 +/- 12.7 g); format: organism-based; settings: in vivo, po, 168 h, time 7 day
Escherichia coli [9] = assay: Induction of cell damage in Escherichia coli ATCC 25922 assessed as intracellular pH at 2 times MIC incubated for 30 mins by fluorescence based analysis (reference value: 6.05 +/- 0.10); format: functional; settings: 0.5 h
Staphylococcus aureus [10] = assay: Antibacterial activity against methicillin-resistant Staphylococcus aureus ATCC 33591 infected in neutropenic Kunming mouse model assessed as reduction in infection-induced inflammatory cell infiltration in lung at 20 mg/kg, ip measured after 7 days; format: functional, organism-based; settings: time 7.0 day
[11] = Toxicity in fasted Sprague-Dawley rat assessed as mortality rate at 100 mg/kg, IG measured for 14 days; format: organism-based; settings: in vivo, po, time 14 day
[12] = Toxicity in fasted female Sprague-Dawley rat assessed as relative ovary weight ratio at 500 mg/kg, IG measured for 14 days (reference value: 0.061 +/- 0.010); format: organism-based; settings: in vivo, po, 336 h, time 14 day
[13] = Toxicity in fasted male Sprague-Dawley rat assessed as relative lung weight ratio at 100 mg/kg, IG measured for 14 days (reference value: 0.437 +/- 0.064); format: organism-based; settings: in vivo, po, 336 h, time 14 day
Staphylococcus aureus [14] = assay: Antibacterial activity against methicillin-resistant Staphylococcus aureus ATCC 33591 infected in neutropenic Kunming mouse model assessed as reduction in infection-induced inflammatory cell inflammation in liver at 10 mg/kg, ip measured after 7 days; format: functional, organism-based; settings: time 7.0 day
[15] = Toxicity in fasted male Sprague-Dawley rat assessed as animal growth rate at 100 mg/kg, IG measured for 14 days (reference value: 46.53 +/- 3.19 g); format: organism-based; settings: in vivo, po, 336 h, time 14 day
[16] = Toxicity in fasted male Sprague-Dawley rat assessed as relative kidney weight ratio at 224 mg/kg, IG measured for 14 days (reference value: 0.820 +/- 0.072); format: organism-based; settings: in vivo, po, 336 h, time 14 day
[17] = Cytotoxicity against human A549 cells incubated for 24 hrs by CCK8 assay; format: toxicity, cell-based
[18] = Toxicity in fasted female Sprague-Dawley rat assessed as relative heart weight ratio at 331 mg/kg, IG measured for 14 days (reference value: 0.429 +/- 0.016); format: organism-based; settings: in vivo, po, 336 h, time 14 day
[19] = Toxicity in fasted Sprague-Dawley rat assessed as mortality rate at 224 mg/kg, IG measured for 14 days; format: organism-based; settings: in vivo, po, time 14 day
Staphylococcus aureus [20] = assay: Antibacterial activity against methicillin-resistant Staphylococcus aureus ATCC 33591 assessed as bacterial growth inhibition incubated for 24 hrs by CLSI based broth microdilution method; format: functional
[21] = test system: Mesomycoplasma hyopneumoniae; assay: Anti-mycoplasma activity against Mycoplasma hyopneumoniae J-NCYC10110 assessed as bacterial growth inhibition incubated for 7 days; format: functional; settings: J-NCYC10110, 168 h, time 7 day
Escherichia coli [22] = assay: Induction of extracellular electrical conductivity in Escherichia coli ATCC 25922 at 2 times MIC incubated for 8 hrs relative to control; format: functional
[23] = Toxicity in fasted female Sprague-Dawley rat assessed as body weight at 100 mg/kg, IG measured on same day (reference value: 165.2 +/- 8.1 g); format: organism-based; settings: in vivo, po
Escherichia coli [24] = assay: Induction of cell damage in Escherichia coli ATCC 25922 assessed as decrease in intracellular ATP concentration at MIC incubated for 30 mins by fluorescence based analysis relative to control; format: functional; design: scale not given: the % may be the effect or the level left; settings: 0.5 h
Staphylococcus aureus [25] = assay: Antibacterial activity against methicillin-resistant Staphylococcus aureus ATCC 33591 infected in neutropenic Kunming mouse model assessed as reduction in infection-induced liver damage at 20 mg/kg, ip measured after 7 days; format: functional, organism-based; settings: time 7.0 day
[26] = Toxicity in fasted female Sprague-Dawley rat assessed as relative lung weight ratio at 100 mg/kg, IG measured for 14 days (reference value: 0.534 +/- 0025); format: organism-based; settings: in vivo, po, 336 h, time 14 day
Staphylococcus aureus [27] = assay: Induction of cell damage in methicillin-resistant Staphylococcus aureus ATCC 33591 assessed as intracellular pH at 2 times MIC incubated for 30 mins by fluorescence based analysis (reference value: 6.34 +/- 0.10); format: functional; settings: 0.5 h
[28] = Toxicity in fasted male Sprague-Dawley rat assessed as relative heart weight ratio at 100 mg/kg, IG measured for 14 days (reference value: 0.396 +/- 0.043); format: organism-based; settings: in vivo, po, 336 h, time 14 day
Staphylococcus aureus [29] = assay: Antibacterial activity against methicillin-resistant Staphylococcus aureus ATCC 33591 infected in neutropenic Kunming mouse model assessed as reduction in infection-induced lung damage at 20 mg/kg, ip measured after 7 days; format: functional, organism-based; settings: time 7.0 day
[30] = Toxicity in neutropenic Kunming mouse model infected with methicillin-resistant Staphylococcus aureus ATCC 33591 assessed as survival rate at 10 mg/kg, ip measured after 7 days relative to control; format: organism-based; settings: in vivo, 168 h, time 7 day
[31] = Cytotoxicity against human HepG2 cells incubated for 24 hrs by CCK8 assay; format: toxicity, cell-based
[32] = Toxicity in fasted female Sprague-Dawley rat assessed as body weight at 148 mg/kg, IG measured on same day (reference value: 165.2 +/- 8.1 g); format: organism-based; settings: in vivo, po
[33] = Toxicity in fasted female Sprague-Dawley rat assessed as relative ovary weight ratio at 100 mg/kg, IG measured for 14 days (reference value: 0.061 +/- 0.010); format: organism-based; settings: in vivo, po, 336 h, time 14 day
Staphylococcus aureus [34] = assay: Inhibition of biofilm formation of methicillin-resistant Staphylococcus aureus ATCC 33591 incubated for 24 hrs by crystal violet staining based analysis; format: functional, organism-based
[35] = Toxicity in fasted male Sprague-Dawley rat assessed as body weight at 224 mg/kg, IG measured after 14 days (reference value: 311.2 +/- 13.6 g); format: organism-based; settings: in vivo, po, 336 h, time 14 day
Staphylococcus aureus [36] = assay: Antibacterial activity against methicillin-resistant Staphylococcus aureus ATCC 33591 infected in neutropenic Kunming mouse model assessed as bacterial load reduction in lung at 10 to 20 mg/kg, ip measured after 2 days; format: functional, organism-based; settings: dose 10-20 mg/kg, time 2.0 day

C=C[C@]1(C)C[C@@H](OC(=O)COC(=O)/C=C/c2ccc(N(C)C)cc2)[C@]2(C)[C@H](C)CC[C@]3(CCC(=O)[C@H]32)[C@@H](C)[C@@H]1O
Activity [1]: 31.79%
Activity (Escherichia coli [2]): Active
Tmax [3]: 4.98 min
Ratio [4]: 0.066
Ratio [5]: 0.209
Activity (Staphylococcus aureus [6]): Dose-Dependent Effect
Activity (Staphylococcus aureus [7]): Active
Activity [8]: 265.5 g
pH (Escherichia coli [9]): 3.23
Activity (Staphylococcus aureus [10]): Active
mortality at 336 h [11]: 0%
Ratio [12]: 0.071
Ratio [13]: 0.44
Activity (Staphylococcus aureus [14]): inactive
Activity [15]: 46.18%
Ratio [16]: 0.808
CC50 at 24 h [17]: > 200 µM
Ratio [18]: 0.471
mortality at 336 h [19]: 0%
MIC (Staphylococcus aureus [20]): 2 µg/mL (≈ 3.63 µM)
MIC [21]: 0.008 µg/mL (≈ 0.0145 µM)
Activity (Escherichia coli [22]): 20.78%
Activity [23]: 163.6 g
Activity (Escherichia coli [24]): 50.75%
Activity (Staphylococcus aureus [25]): Active
Ratio [26]: 0.522
pH (Staphylococcus aureus [27]): 2.75
Ratio [28]: 0.396
Activity (Staphylococcus aureus [29]): Active
Survival [30]: 70%
CC50 at 24 h [31]: > 200 µM
Activity [32]: 159.8 g
Ratio [33]: 0.071
inhibition (Staphylococcus aureus [34]): Dose-Dependent Effect
Activity [35]: 304.9 g
Activity (Staphylococcus aureus [36]): Active
